The source of these data is PubChem BioAssay AID328 (DTP/NCI, 2004).

Values joined by “and” are separate entries in the source; they are usually repeats but may differ in a detail not shown here. Equal values may be shown once. Toxic doses and inconclusive results are not listed.

This assay has as its system BDF1 mice, P388 leukemia ip, median survival T/C. Nature of the assay: NCI In Vivo Anticancer Drug Screen. Data for tumor model P388 Leukemia (intraperitoneal) in B6D2F1 (BDF1) mice. Conditions: endpoint: median survival time, higher = longer survival. In outline: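 Mice carrying the transplantable tumour receive compound or vehicle. Survival is followed in each arm, and the treated measure is divided by the vehicle measure.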

The mark [1] stands for this setting: dose: 50.0 mg/kg/injection, schedule: Q04DX003 (ip), vehicle: saline with Tween-80.
Where [2] appears, read: dose: 100.0 mg/kg/injection, schedule: Q04DX003 (ip), vehicle: saline with Tween-80.
Setting [3] is: dose: 100.0 mg/kg/injection, schedule: Q01DX009 (ip), vehicle: saline with Tween-80.
The mark [4] stands for this setting: dose: 200.0 mg/kg/injection, schedule: Q04DX003 (ip), vehicle: saline with Tween-80.
The mark [5] stands for this setting: dose: 200.0 mg/kg/injection, schedule: Q01DX009 (ip), vehicle: saline with Tween-80.
Setting [6] is: dose: 400.0 mg/kg/injection, schedule: Q01DX009 (ip), vehicle: saline with Tween-80.
Where [7] appears, read: dose: 400.0 mg/kg/injection, schedule: Q04DX003 (ip), vehicle: saline with Tween-80.
[8] abbreviates: dose: 100.0 mg/kg/injection, schedule: Q01DX009 (ip), vehicle: Klucel (hydroxypropylcellulose) (HPC).
[9] abbreviates: dose: 100.0 mg/kg/injection, schedule: Q01DX009 (ip), vehicle: other.
Setting [10] is: dose: 200.0 mg/kg/injection, schedule: Q04DX003 (ip), vehicle: Klucel (hydroxypropylcellulose) (HPC).
[11] abbreviates: dose: 200.0 mg/kg/injection, schedule: Q01DX009 (ip), vehicle: saline.
Where [12] appears, read: dose: 100.0 mg/kg/injection, schedule: Q04DX003 (ip), vehicle: Klucel (hydroxypropylcellulose) (HPC).
The mark [13] stands for this setting: dose: 25.0 mg/kg/injection, schedule: Q01DX009 (ip), vehicle: saline with Tween-80.
Setting [14] is: dose: 50.0 mg/kg/injection, schedule: Q01DX009 (ip), vehicle: saline with Tween-80.

As to `O=C(O)CCCc1ccc(N(CCCl)CCCl)cc1`, the T/C (dose: 0.25 mg/kg/injection, schedule: Q01DX009 (ip), vehicle: Klucel (hydroxypropylcellulose) (HPC)) was 123 % of control; the T/C (dose: 0.5 mg/kg/injection, schedule: Q01DX009 (ip), vehicle: Klucel (hydroxypropylcellulose) (HPC)) was 105 % of control; the T/C (dose: 1.5 mg/kg/injection, schedule: Q01DX009 (ip), vehicle: Klucel (hydroxypropylcellulose) (HPC)) is 171 % of control; the T/C (dose: 2.0 mg/kg/injection, schedule: Q01DX009 (ip), vehicle: Klucel (hydroxypropylcellulose) (HPC)) was 165 % of control; the T/C (dose: 3.0 mg/kg/injection, schedule: Q01DX009 (ip), vehicle: saline) is 99 % of control and 100 % of control; the T/C (dose: 3.13 mg/kg/injection, schedule: Q01DX010 (ip), vehicle: saline) was 100 % of control. Besides, the T/C (dose: 6.0 mg/kg/injection, schedule: Q01DX009 (ip), vehicle: saline) was 105 % of control; the T/C (dose: 12.0 mg/kg/injection, schedule: Q01DX009 (ip), vehicle: saline) is 122 % of control; the T/C (dose: 12.5 mg/kg/injection, schedule: Q01DX010 (ip), vehicle: saline) is 172 % of control; the T/C (dose: 24.0 mg/kg/injection, schedule: Q01DX009 (ip), vehicle: saline) is 88 % of control.
On to `CC(C)=CCCC(C)=C(C#N)C#N`, for which the T/C runs as follows: (dose: 25.0 mg/kg/injection, schedule: Q04DX003 (ip), vehicle: saline with Tween-80) 107 % of control; under setting [1], 105 % of control; under setting [2], 107 % of control.
Take `CCCOP(=S)(N1CC1(C)C)N1CC1(C)C` (centres undefined): the T/C (dose: 66.0 mg/kg/injection, schedule: Q01DX009 (ip), vehicle: saline with Tween-80) was 168 % of control; the T/C under setting [3] was 209 % of control and 222 % of control; the T/C under setting [2] was 116 % of control; the T/C under setting [4] was 108 % of control.
In the case of `O=C1c2ccccc2CC1(Br)C(Br)c1ccccc1` (centres undefined), the T/C under setting [3] was 115 % of control; the T/C under setting [2] is 104 % of control; the T/C under setting [5] was 108 % of control; the T/C under setting [4] is 104 % of control; the T/C under setting [6] was 115 % of control; the T/C under setting [7] was 103 % of control.
`CCCOP(=S)(N1CC1)N1CC1`: the T/C is 100 % of control (dose: 25.0 mg/kg/injection, schedule: Q01DX009 (ip), vehicle: other); 116 % of control (dose: 50.0 mg/kg/injection, schedule: Q04DX003 (ip), vehicle: Klucel (hydroxypropylcellulose) (HPC)); 100 % of control under setting [8]; 150 % of control under setting [9]; 183 % of control under setting [10].
With `CSCSCC(CO)NS(=O)(=O)c1ccc(C)cc1` (centres undefined), the T/C was 100 % of control under setting [2], 100 % of control under setting [4] and 100 % of control under setting [7].
Take `CCNC(=O)c1cc2cccc(OC)c2oc1=N`: the T/C under setting [11] was 86 % of control.
For the compound `COc1ccc(/C=C(\CC(=O)O)C(=O)O)cc1OC`, the T/C was 100 % of control under setting [8]; 100 % of control under setting [12]; 109 % of control (dose: 200.0 mg/kg/injection, schedule: Q01DX009 (ip), vehicle: Klucel (hydroxypropylcellulose) (HPC)); 100 % of control under setting [10]; 95 % of control (dose: 400.0 mg/kg/injection, schedule: Q01DX009 (ip), vehicle: Klucel (hydroxypropylcellulose) (HPC)); 90 % of control (dose: 400.0 mg/kg/injection, schedule: Q04DX003 (ip), vehicle: Klucel (hydroxypropylcellulose) (HPC)).
As to `CNC(=N)c1ccc(NC(=N)c2ccc(NC(=O)Nc3ccc(NC(=O)Nc4ccc(C(=N)Nc5ccc(C(=N)NC)cc5)cc4)cc3)cc2)cc1`, the T/C is 154 % of control (dose: 4.0 mg/kg/injection, schedule: Q04DX003 (ip), vehicle: Klucel (hydroxypropylcellulose) (HPC)); 150 % of control and 154 % of control (dose: 6.0 mg/kg/injection, schedule: Q04DX003 (ip), vehicle: Klucel (hydroxypropylcellulose) (HPC)); 161 % of control (dose: 7.0 mg/kg/injection, schedule: Q01DX009 (ip), vehicle: Klucel (hydroxypropylcellulose) (HPC)); 159 % of control (dose: 9.0 mg/kg/injection, schedule: Q04DX003 (ip), vehicle: Klucel (hydroxypropylcellulose) (HPC)); 150 % of control (dose: 11.0 mg/kg/injection, schedule: Q01DX009 (ip), vehicle: Klucel (hydroxypropylcellulose) (HPC)); 176 % of control and 177 % of control (dose: 13.0 mg/kg/injection, schedule: Q04DX003 (ip), vehicle: Klucel (hydroxypropylcellulose) (HPC)). For the same compound, the T/C was 192 % of control (dose: 16.5 mg/kg/injection, schedule: Q01DX009 (ip), vehicle: Klucel (hydroxypropylcellulose) (HPC)); 153 % of control (dose: 20.0 mg/kg/injection, schedule: Q04DX003 (ip), vehicle: Klucel (hydroxypropylcellulose) (HPC)); 231 % of control (dose: 25.0 mg/kg/injection, schedule: Q01DX009 (ip), vehicle: Klucel (hydroxypropylcellulose) (HPC)); 176 % of control (dose: 30.0 mg/kg/injection, schedule: Q04DX003 (ip), vehicle: Klucel (hydroxypropylcellulose) (HPC)); 160 % of control and 207 % of control (dose: 44.0 mg/kg/injection, schedule: Q04DX003 (ip), vehicle: Klucel (hydroxypropylcellulose) (HPC)); 173 % of control and 207 % of control (dose: 67.0 mg/kg/injection, schedule: Q04DX003 (ip), vehicle: Klucel (hydroxypropylcellulose) (HPC)). In addition, the T/C under setting [12] was 230 % of control (2×) and 156 % of control; the T/C (dose: 150.0 mg/kg/injection, schedule: Q04DX003 (ip), vehicle: Klucel (hydroxypropylcellulose) (HPC)) is 160 % of control and 211 % of control.
Consider `O=C1c2c(Cl)cccc2C(O)(c2ccccc2)c2cccc(Cl)c21`, for which the T/C is 100 % of control (dose: 50.0 mg/kg/injection, schedule: Q01DX009 (ip), vehicle: other); 92 % of control under setting [9]; 105 % of control (dose: 200.0 mg/kg/injection, schedule: Q01DX009 (ip), vehicle: other).
Regarding `CC(=O)c1c(C)cc(C(C)(C)C)cc1C`, the T/C was 109 % of control (dose: 100.0 mg/kg/injection, schedule: Q01DX009 (ip), vehicle: saline); 100 % of control under setting [11]; 109 % of control (dose: 400.0 mg/kg/injection, schedule: Q01DX009 (ip), vehicle: saline).
With `CC(Oc1ccc2ccccc2c1I)C(=O)O` (centres undefined), the T/C is, setting by setting: (dose: 50.0 mg/kg/injection, schedule: Q01DX005 (ip), vehicle: saline with Tween-80) 91 % of control; (dose: 100.0 mg/kg/injection, schedule: Q01DX005 (ip), vehicle: saline with Tween-80) 113 % of control; (dose: 200.0 mg/kg/injection, schedule: Q01DX005 (ip), vehicle: saline with Tween-80) 106 % of control.
As for `O=[N+]([O-])c1ccc2c(N=Nc3c(O)ccc4ccccc34)c(O)cc(S(=O)(=O)O)c2c1`, the T/C (dose: 25.0 mg/kg/injection, schedule: Q01DX001 (ip), vehicle: saline with Tween-80) was 104 % of control; the T/C (dose: 50.0 mg/kg/injection, schedule: Q01DX001 (ip), vehicle: saline with Tween-80) was 100 % of control; the T/C (dose: 100.0 mg/kg/injection, schedule: Q01DX001 (ip), vehicle: saline with Tween-80) is 100 % of control; the T/C under setting [3] is 104 % of control; the T/C under setting [6] is 100 % of control.
For `COc1cc2c(cc1OC)C(c1ccc(N=Cc3ccc(Cl)c(Cl)c3)cc1)N(C(=S)Nc1cc(Cl)ccc1Cl)CC2` (centres undefined), the T/C by setting is: under setting [13], 104 % of control; under setting [14], 93 % of control and 97 % of control; under setting [3], 95 % of control; under setting [5], 89 % of control.
On to `CNc1c(F)c(C#N)c(F)c(F)c1C#N`, for which the T/C under setting [14] was 119 % of control.
Take `C[n+]1ccc2ccccc2c1CCCc1nccc2ccccc12`: the T/C was 100 % of control (dose: 6.25 mg/kg/injection, schedule: Q01DX009 (ip), vehicle: saline with Tween-80); 120 % of control (dose: 12.5 mg/kg/injection, schedule: Q01DX009 (ip), vehicle: saline with Tween-80); 116 % of control under setting [13].
As for `O=CNC(Cc1cccc(N(CCCl)CCCl)c1)C(=O)O` (centres undefined), the T/C is, setting by setting: (dose: 11.0 mg/kg/injection, schedule: Q04DX003 (ip), vehicle: saline sonified) 94 % of control; (dose: 16.5 mg/kg/injection, schedule: Q04DX003 (ip), vehicle: saline sonified) 100 % of control; (dose: 25.0 mg/kg/injection, schedule: Q04DX003 (ip), vehicle: saline sonified) 122 % of control; under setting [1], 177 % of control; under setting [2], 272 % of control.
